Reference: a melting point compilation (Tetko et al.; mined from patent text by program, amines drawn as free bases though some values may be those of a salt)

Compared with `CC12CC(N3CCOCC3)C(O)CC1CCC1C2CCC2(C)C(O)C(N3CCCC3)CC12` (centres undefined), `O=C(Nc1ccc(N2CCC(C(C(=O)O)c3ccccc3)CC2)cc1)c1ccccc1-c1ccc(C(F)(F)F)cc1` (centres undefined) is lower in melting point: 226 °C for the first, 196 °C for the second.

First: CN(C)CCNc1cc(Cl)nc(-c2ccc(Cl)c(Cl)c2)n1
Second: COc1ccc(CCNc2ncnc3c(F)ccc(F)c23)cc1C
The melting point of the first is lower: 99.5 to 102 °C for the first, 162 to 169 °C for the second.

Compared with `O=C(NCCC(Nc1ccccc1)c1ccccc1)c1ccccc1` (centres undefined), `CNc1nc(-c2ccccc2)c(-c2nc3ccccc3c(=O)n2-c2ccccc2)s1` is higher in melting point: 120 to 121 °C for the first, 224 to 225 °C for the second.

First: Cc1cc([N+](=O)[O-])cc(C)c1Oc1ccc(O)c(Cc2ccc(F)cc2)c1
Second: CC(=O)Nc1c(C(=O)c2ccccc2)[nH]c2ccc([N+](=O)[O-])cc12
The melting point of the first is lower: 127 to 132 °C for the first, 210 to 212 °C for the second.

First: CC(=O)Nc1cc2c(cc1C#N)C(Nc1ccc(C(=O)OC(C)(C)C)c(F)c1)CC2 (centres undefined)
Second: CC(C)(C)OC(=O)[C@@H]1CCC(=S)N1Cc1ccccc1
The melting point of the first is higher: 172 to 173 °C for the first, 72 to 78 °C for the second.

First: O=S(=O)(c1c(F)c(F)c(F)c(F)c1F)N1CCCC(c2ccc(F)cc2)=N1
Second: Cc1c(C)c2ccc(CCCCCN3CCN(c4cccc(Cl)c4Cl)CC3)nc2[nH]c1=O
The melting point of the first is lower: 140 to 141 °C for the first, 202 to 203 °C for the second.

First: S=c1nc(NCCCOc2cccc(CN3CCCCC3)c2)cc[nH]1
Second: O[C@H](CCc1cccnc1)COc1ccc(-c2cccc(F)c2)cc1
The melting point of the first is higher: 180 to 181 °C for the first, 61 to 62 °C for the second.

Compared with `N#CCSC(=S)SCc1ccc(Cl)cc1`, `Oc1ccc(CCc2cccc(O)c2)cc1` is higher in melting point: 41 to 43 °C for the first, 108 °C for the second.

First: Cc1sc(-c2ccco2)nc1COc1ccc(CCl)cc1
Second: COc1ccc2c(c1)sc1ncc(C(O)CCc3ccccc3)n12 (centres undefined)
The melting point of the first is lower: 115 to 116 °C for the first, 166 to 167 °C for the second.

Compared with `COc1ccc(/C=C/C=C/C(=O)O)cc1`, `COc1ccc(C(=O)C=Cc2ccc(OCc3ccccc3)cc2)c(O)c1CC=C(C)C` is lower in melting point: 134 to 135 °C for the first, 70 to 71 °C for the second.

Compared with `CC(=O)N1CCSC1c1nsc2ccc(-n3c(=O)cc(C(F)(F)F)n(C)c3=O)cc12` (centres undefined), `Cc1cccc(C)c1N1C(=N)N(c2cccc(C(F)(F)F)c2)CC1C` (centres undefined) is lower in melting point: 135 to 140 °C for the first, 95 to 98 °C for the second.

Compared with `O=C(O)C1(C(F)(F)F)NNC2=C1CCCC2` (centres undefined), `Cc1cc(C(=O)C=C(c2cc(Cl)cc(Cl)c2)C(F)(F)F)ccc1C(=O)O` is lower in melting point: 183 to 184 °C for the first, 123 to 126 °C for the second.

First: COc1ccc(Cl)cc1C(=O)NCCc1ccc(C=C(C)C(=O)O)cc1
Second: COCC(COC)N(C)Cc1ccc(NC(=O)C2=Cc3cc(-c4ccc(C)cc4)ccc3OCC2)cc1
The melting point of the first is higher: 188 to 191 °C for the first, 128 to 132 °C for the second.

First: OCCCCCCCCN1CCC(C(O)(c2ccc(F)cc2)c2ccc(F)cc2)CC1
Second: CCCCCCCCCCCC(=O)c1c(-c2ccccc2)[nH]n(-c2ccccc2)c1=O
The melting point of the first is higher: 124 to 125 °C for the first, 69 °C for the second.

First: N#CC1C2OCC(O2)C(OCc2ccccc2)C1O (centres undefined)
Second: CC(C)(C)C(O)C(C(CC#N)c1ccccc1)n1ccnc1 (centres undefined)
The melting point of the first is lower: 152 to 156 °C for the first, 212 to 228 °C for the second.

`CCC1(O)CC(=O)OCc2c1cc1n(c2=O)Cc2c-1nc1ccccc1c2Cc1ccccc1` (centres undefined) and `Cc1cc(-c2ccccc2)nc2nc(N)ccc12` cannot be ordered by melting point: > 250 °C for the first, 253 to 255 °C for the second.

First: COC(=O)c1cc([N+](=O)[O-])c(O)c([N+](=O)[O-])c1
Second: CS(=O)(=O)c1cc(N)c([N+](=O)[O-])cc1N
The melting point of the first is lower: 110 to 115 °C for the first, 221 °C for the second.

Compared with `O=[N+]([O-])c1cccc(-c2ccncc2)c1`, `COc1ccc(C(F)(F)F)cc1NC(=N)Nc1cccc(C(F)(F)F)c1` is lower in melting point: 109 to 110 °C for the first, 45 to 47 °C for the second.

Compared with `COc1c2c(cc3c1OCO3)C(OC(C)=O)CN(C)C2` (centres undefined), `CCCn1c(=O)c(C(=O)OCC)c(O)c2cnc(SC)nc21` is higher in melting point: 109 to 110 °C for the first, 130 to 133 °C for the second.

First: COc1cc(C)nc(NC(=O)NS(=O)(=O)c2ccccc2OCCOS(C)(=O)=O)n1
Second: COC(=O)Nc1nc2ccccc2n1C(=O)NC(=O)C(Cl)=C(Cl)Cl
The melting point of the first is lower: 176 to 179 °C for the first, 231 °C for the second.

Compared with `N#CCc1c[nH]c2ccc(CCS(N)(=O)=O)cc12`, `CC(C)n1c(=O)c(=O)[nH]c2cccnc21` is higher in melting point: 109 to 111 °C for the first, 246 to 247 °C for the second.

First: CCN1C(=O)C(C)(C)C(=O)N(C)c2cc(CN(CCn3ccc4oc(COC)cc4c3=O)Cc3cccnc3C)ccc21
Second: Clc1cccc(Nc2ncnc3[nH]nc(NCc4ccc(-c5nccs5)cc4)c23)c1
The melting point of the first is lower: 123 to 126 °C for the first, 241 to 243 °C for the second.

First: CN1CS(=O)c2cccc(F)c21 (centres undefined)
Second: C=CCc1cc2c(c(CC=C)c1O)N(CC=Cc1ccccc1)C(=O)CC2
The melting point of the first is lower: 122 to 124 °C for the first, 132 to 138 °C for the second.

Compared with `O=C(O)c1cnc(O)cc1Cl`, `CC(=NC(C#N)=C(N)C#N)c1ccco1` is lower in melting point: 299 to 300 °C for the first, 175 to 176 °C for the second.

In the case of `Nc1nc(N)nc(N2CCSCC2)n1`, the melting point is reported as 237 to 239 °C.
